Tests used:
[1] = molecular target: T1, kappa opioid receptor (KOR) (Homo sapiens, UniProt P41145); assay: OPRKappa 1 Tango B-Arrestin Assay, antagonist mode (Tango OPRK1-bla U2OS cells, U50488 EC80 challenge); type: cell-based; conditions: for Selectivity (MOR/KOR): Kappa selectivity, MOR IC50 / KOR IC50; for IC50: antagonist mode, Tango OPRK1-bla U2OS cells, 6 nM U50488 challenge
T1 construct: host or cells: U2OS (Tango OPRK1-bla U2OS)
From the text: OPRKappa 1 Tango B-Arrestin Assay Protocol-Antagonist Mode. […] The assay uses Tango OPRK1-bla U2OS cells which express OPRK1 linked to a GAL4-VP16 transcription factor via a TEV protease site. The cells also express a β-arrestin/TEV protease fusion protein and a β-lactamase (BLA) reporter gene under the control of a UAS response element. Stimulation of the OPRK1 receptor by agonist causes migration of the β-arrestin fusion protein to the GPCR, and through proteolysis liberates GAL4-VP16 from the receptor. The liberated VP16-GAL4 migrates to the nucleus, where it induces transcription of the BLA gene. BLA expression is monitored by measuring fluorescence resonance energy transfer (FRET) of a cleavable, fluorogenic, cell-permeable BLA substrate. As designed, test compounds that are OPRK1 antagonists inhibit agonist activation and migration of the fusion protein, thus preventing proteolysis of GAL4-VP16 and BLA transcription, leading to no increase in well FRET. Compounds were tested in quadruplicate using a 10-point, 1:3 dilution series starting at a nominal concentration of 10 micromolar.
The Tango OPRK1-U20S Dividing cell line was routinely cultured in 150 mm dishes at 37C, 5% CO2 and 95% relative humidity (RH).
On Day 1 of the assay, 16,000 cells in 10 μL of assay media (DMEM-Glutamax—with Sodium Pyruvate, 10% fetal bovine serum stripped with charcoal-dextran (CDS), 25 mM HEPES, 0.1 mM non-essential amino acids, antibiotic mix (penicillin streptomycin)) were seeded into each well of a 384 Greiner 788092 black low profile, clear bottom, low volume plate, and incubated 16-24 hours at 37° C., 5% CO2 and 95% (RH).
On Day 2, 50 nL of test compound in DMSO was added to the appropriate wells and plates were incubated for 30 min at 37° C. 5% CO2 and 95% (RH). Next was added 0.65 μL of commercially available U50488 OPRK1 agonist or DMSO in assay media: this EC80 Challenge consists of 0.6 μL of 111 nM U50488 to yield a final assay concentration of 6 nM). After incubation for 4 hours at 37° C., 5% CO2 and 95% (RH), 2.5 μL of LiveBLazer™FRET B/G (CCF4-AM) Mix (Soln.'s A,B,C,&D) was added to each well and incubated at room temperature in the dark for 2 hours. Well fluorescence was measured on Perkin Elmer's Envision using an Excitation filter 409 nm, Emission filters at 460 nm and […], bottom read.
(§1) The Percent Inhibition was calculated from the median ratio as follows:
• Tango™OPRK1-bla U20S Cells (Invitrogen K1576) • McCoy's 5A Medium, (Invitrogen 16600-082) • Dialyzed Fetal Bovine Serum, (Invitrogen 26400-036) • Non Essential Amino Acids 100× (Invitrogen part 11140-050) • HEPES (pH 7.3) 1M, (Invitrogen 15630-080) • Sodium Pyruvate 100× (Invitrogen 11360-070) • Penicillin Streptomycin, (Invitrogen 15640) • Trypsin 0.25% EDTA (Invitrogen 25200056) • DPBS without Calcium/Magnesium (Invitrogen 14190-136) • DMEM, High Glucose, GlutaMAX (Invitrogen 10569-010) • Fetal Bovine Serum, Charcoal Stripped (Invitrogen 12676-011) • DMSO Dry (Sigma D2650) • U50488 OPRK1 Agonist MW410.29 (Tocris 67198-19-0) • GNTI dihydrochloride OPRK1 Antagonist MW571.5 (Tocris 1282) • Nor-Binaltorphimine dihydrochloridc MW770.75 (Tocris 0347)
LiveBLAzere™-FRET/BG Loading Mix: (Invitrogen K1030 (5 mg)), composed of Solutions A, B, C, and D: • Solution A (6 μL): LiveBLAzer™-FRET/BG Substrate (CCF4-AM) • Solution B (60 μL) • Solution C (904 μL) • Solution C (must add 250 μl of 1N NaOH to 45 mL of Solution C prior to use) • Solution D (30 μL) [Probinicid] (Sigma P8161) make 200 mM stock in NaOH—H2O.

mu opioid receptor (MOR) = molecular target: T2, mu opioid receptor (MOR) (Homo sapiens, UniProt P35372); assay: OPRMu1 Discover X β-arrestin Assay, antagonist mode (U2OS cells, DAMGO EC80 challenge); type: cell-based
T2 construct: host or cells: U2OS (Discover X OPRMu1-U2OS, PathHunter)
T2 sequence (P35372 whole entry): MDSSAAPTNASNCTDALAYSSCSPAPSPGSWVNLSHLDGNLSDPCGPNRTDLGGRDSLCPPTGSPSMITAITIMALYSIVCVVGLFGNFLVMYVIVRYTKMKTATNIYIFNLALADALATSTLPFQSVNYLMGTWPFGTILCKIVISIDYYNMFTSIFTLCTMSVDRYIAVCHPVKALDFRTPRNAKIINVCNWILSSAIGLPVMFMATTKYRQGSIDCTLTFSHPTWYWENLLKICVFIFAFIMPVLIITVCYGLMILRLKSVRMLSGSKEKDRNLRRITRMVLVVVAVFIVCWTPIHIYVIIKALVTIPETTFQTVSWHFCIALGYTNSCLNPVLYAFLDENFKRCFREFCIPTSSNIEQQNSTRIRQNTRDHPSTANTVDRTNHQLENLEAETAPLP
From the text: OPRMu1 Discover X—β-arrestin Assay—Antagonist Mode. […] This assay evaluates the OPRMu1 activation in membrane recruitment of β-arrestin. In addition, the assay evaluates GPCR-β-arrestin proximity using low affinity fragment complementation of beta-galactosidase (beta-gal). The assay employs U20S cells, which express OPRMu1 fused to the complementary beta-gal fragment (enzyme acceptor). As designed, compounds that act as antagonists will prevent receptor activation resulting in reduced well luminescence. Compounds were tested in quadruplicate using a 10-point, 1:3 dilution series starting at a nominal concentration of 10 micromolar.
The Discover X OPRMu1-U20S cell line was cultured in 150 mm dishes at 37° C., 5% CO2 and 95% relative humidity (RH).
On Day 1 of the assay, 5000 cells in 20 μL of assay buffer (Discover X's Cell Plating Reagent 5) were seeded into each well of a 384 Corning 3570 standard white plate, and incubated 16-24 hours at 37° C., 5% CO2 and 95% RH.
On Day 2, 100 nL of test compound in DMSO were added to the appropriate wells and the plates were then incubated for 30 min at 37° C. 5% CO2 and 95% RH. Next, 2.2 μL of DAMGO OPRMu1 agonist (commercially available) or DMSO in assay media. (The EC80 Challenge consists of 1.8 μL of 3.7 μM DAMGO, 0.4 μL of Assay Buffer, with a final assay concentration of 303 nM). After incubation for 3 hours at 37° C. 5% CO2, and 95% RH, 10 μL of Path Hunter Detection Mix was added to each well, and the plate was then incubated at room temperature in the dark for 1 hour. Well luminescence was measured on Perkin Elmer's Envision.
as §1
• DMEM Medium, (Invitrogen 11965) • F12 Medium, (Invitrogen 11765) • Heat Inactivated Fetal Bovine Serum, (Invitrogen 10082147) • Non Essential Amino Acids 100× (Invitrogen 11140-050) • HEPES (pH 7.3) 1M, (Invitrogen 15630-080) • Sodium Pyruvate 100× (Invitrogen 11360-070) • Penicillin Streptomycin, (Invitrogen 15640) • Trypsin 0.25% EDTA (Invitrogen 25200056) • DPBS without Calcium/Magnesium (Invitrogen 14190-136) • DMSO Dry (Sigma D2650) • DAMGO OPRMu1 Agonist MW513.19 (Sigma E7384-5MG) • B-Funaltrexamine Hydrochloride OPRM1 Antagonist MW (SIGMA 0003-2MG) • PathHunter Cell Plating 5 Reagent (Discover X 93-0563R5A) • Corning 3750 Standard 384 well white plate with lid.
PathHunter Detection Mix (DiscoverX 93-0001): 1 part Galacton Star/5 parts Emerald II/19 parts PH Cell Assay Buffer.

T1 sequence (P41145 whole entry): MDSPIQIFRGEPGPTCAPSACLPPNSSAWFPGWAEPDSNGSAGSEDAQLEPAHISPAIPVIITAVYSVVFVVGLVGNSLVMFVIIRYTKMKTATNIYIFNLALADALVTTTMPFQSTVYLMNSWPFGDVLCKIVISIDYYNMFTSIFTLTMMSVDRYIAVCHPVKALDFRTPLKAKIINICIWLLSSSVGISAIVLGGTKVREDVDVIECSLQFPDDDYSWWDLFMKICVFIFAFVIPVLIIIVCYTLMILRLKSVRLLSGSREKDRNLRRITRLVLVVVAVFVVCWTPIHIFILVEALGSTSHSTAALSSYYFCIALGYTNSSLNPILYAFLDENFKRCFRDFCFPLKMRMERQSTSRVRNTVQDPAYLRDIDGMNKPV

Structure (SMILES)	IC50 [1]	IC50 (mu opioid receptor (MOR))	Selectivity (MOR/KOR) [1]
CCc1cc(F)c2nc(N3CCN(C(=O)[C@@H](C)N(CC)CC)C[C@H]3C)c(-c3cc(C)no3)c(C)c2c1 [Compound 180]	1 to 10 nM	> 1000 nM	+++ (between 100- to 1000-fold selective)
CCc1cc(-c2ccn(C)n2)c2nc(N3CCNC[C@H]3C)c(-c3nc(C)no3)c(C)c2c1 [Compound 104]	10 to 100 nM	> 1000 nM	+++ (between 100- to 1000-fold selective)
CCc1cc(F)c2nc(N3CCN(C[C@H]4CCOC4)C[C@H]3C)c(-c3nc(C)no3)c(C)c2c1 [Compound 202]	1 to 10 nM	> 1000 nM	++++ (more than 1000-fold selectivity over MOR)
CCc1cc(F)c2nc(N3CCN(C(=O)C(C)(C)N4CCCC4)C[C@H]3C)c(-c3nc(C)no3)c(C)c2c1 [Compound 153]	1 to 10 nM	> 1000 nM	+++ (between 100- to 1000-fold selective)
CCc1cc(F)c2nc(N3CCN(C[C@H]4CCCO4)C[C@H]3C)c(-c3nc(C)no3)c(C)c2c1 [Compound 30]	1 to 10 nM	> 1000 nM	+++ (between 100- to 1000-fold selective)
CCc1cc(F)c2nc(N3CCN(C[C@H]4CCCO4)C[C@H]3CC)c(-c3nc(C)no3)c(C)c2c1 [Compound 36]	10 to 100 nM	> 1000 nM	++ (between 10- and 100-fold selectivity)
CCc1cc(F)c2nc(N3CCNC4CC43)c(-c3nc(C)no3)c(C)c2c1 (centres unmarked) [Compound 64]	≥ 100 nM	> 1000 nM	++ (between 10- and 100-fold selectivity)
CCc1cc(F)c2nc(N3CCN(C(=O)CN(CC)CC)C[C@H]3C)c(-c3cc(C)no3)c(C)c2c1 [Compound 166]	1 to 10 nM	> 1000 nM	+++ (between 100- to 1000-fold selective)
CCc1cc(F)c2nc(N3CCN(CC4CCOCC4)C4CC43)c(-c3nc(C)no3)c(C)c2c1 (centres unmarked) [Compound 60]	≥ 100 nM	> 1000 nM	–

More lines, main results first:

IC50 [1]	IC50 (mu opioid receptor (MOR))	Structure (SMILES)	Selectivity (MOR/KOR) [1]
10 to 100 nM	> 1000 nM	CCc1cc(-c2ccnn2C)c2nc(N3CCN(C[C@H]4CCOC4)C[C@H]3C)c(-c3ccn(C)n3)c(C)c2c1 [Compound 98]	+++ (between 100- to 1000-fold selective)
10 to 100 nM	> 1000 nM	CCc1cc(C#N)c2nc(N3CCC(N4CCOC[C@H]4C)CC3)c(-c3ccn(C)n3)c(C)c2c1 [Compound 82]	++ (between 10- and 100-fold selectivity)
10 to 100 nM	> 1000 nM	CCc1cc(F)c2nc(N3CC[C@@H](N[C@@H]4CCCOC4)C[C@@H]3C)c(-c3cc(C)no3)c(C)c2c1 [Compound 143]	++++ (more than 1000-fold selectivity over MOR)
10 to 100 nM	> 1000 nM	CCc1cc(F)c2nc(N3CC[C@H](N[C@@H]4CCCOC4)C[C@@H]3C)c(-c3ccn(C)n3)c(C)c2c1 [Compound 121]	+++ (between 100- to 1000-fold selective)
< 1 nM	10 to 100 nM	CCc1cc(C#N)c2nc(N3CCC(N[C@@H]4CCOC[C@@H]4F)CC3)c(-c3ccn(C)n3)c(C)c2c1 [Compound 78]	++ (between 10- and 100-fold selectivity)
< 1 nM	> 1000 nM	CCc1cc(F)c2nc(N3CC[C@@H](N[C@H]4CCOC4)[C@@H](F)C3)c(-c3ccn(C)n3)c(C)c2c1 [Compound 193, (3S,4R)-1-(6-ethyl-8-fluoro-4-methyl-3-(1-methyl-1H-pyrazol-3-yl)quinolin-2-yl)-3-fluoro-N—((S)-tetrahydrofuran-3-yl)piperidin-4-amine]	++++ (more than 1000-fold selectivity over MOR)
10 to 100 nM	> 1000 nM	CCc1cc(C#N)c2nc(N3CCC(N4CCOC[C@@H]4C)CC3)c(-c3ccn(C)n3)c(C)c2c1 [Compound 81]	++ (between 10- and 100-fold selectivity)
< 1 nM	10 to 100 nM	CCc1cc(-c2cc(C)nn2C)c2nc(N3CCC(N[C@H]4CCOC4)CC3)c(-c3ccn(C)n3)c(C)c2c1 [Compound 94]	+++ (between 100- to 1000-fold selective)
10 to 100 nM	> 1000 nM	CCc1cc(F)c2nc(N3CC[C@H]4[C@H](CCN4C[C@@H]4CCOC4)C3)c(-c3ccn(C)n3)c(C)c2c1 (stereo in doubt) [Compound 129]	++ (between 10- and 100-fold selectivity)
< 1 nM	> 1000 nM	CCc1cc(F)c2nc(N3CC[C@@H](N[C@@H]4CCCOC4)C[C@@H]3C)c(-c3ccn(C)n3)c(C)c2c1 [Compound 120]	++++ (more than 1000-fold selectivity over MOR)
1 to 10 nM	> 1000 nM	CCc1cc(-c2ccnn2C)c2nc(N3CCN(C[C@@H]4CCOC4)C[C@H]3C)c(-c3ccn(C)n3)c(C)c2c1 [Compound 97]	+++ (between 100- to 1000-fold selective)
1 to 10 nM	100 to 1000 nM	CCc1cc(F)c2nc(N3CC[C@@H](N[C@@H]4CCCOC4)[C@H](C)C3)c(-c3ccn(C)n3)c(C)c2c1 [Compound 114]	++ (between 10- and 100-fold selectivity)

— patent US20260115185A1, “QUINOLINE DERIVATIVES WHICH ACT AS KAPPA-OPIOID RECEPTOR ANTAGONISTS” (The Scripps Research Institute, priority 2023, published 2026)
